Measurements: ChEMBL document CHEMBL5537162, “Development of Antibacterial Peptides with Membrane Disruption and Folate Pathway Inhibitory Activities against Methicillin-Resistant Staphylococcus aureus” (J Med Chem, 2024)
Values after ≈ are worked out from the molar mass of the structure shown. Active and inactive are the calls of the source. No cut-off for these calls is given here.

Assays:
[1] = test system: Staphylococcus aureus; experiment: Antibacterial activity against methicillin-resistant Staphylococcus aureus assessed as bacterial growth inhibition incubated for 24 hrs by CLSI based micro-broth dilution assay; assay type: functional
[2] = (§1) Hemolytic activity in mouse RBC assessed as hemolysis incubated for 1 hrs by spectrophotometric analysis; assay type: toxicity, cell-based, Erythrocyte; settings: mouse red blood cells (erythrocytes)
[3] = test system: Erythrocyte; experiment: as §1; assay type: toxicity, cell-based; settings: erythrocyte, 1 h
[4] = Hemolytic activity in mouse RBC assessed as hemolysis at 320 uM incubated for 1 hrs by spectrophotometric analysis relative to control; assay type: toxicity, cell-based, Erythrocyte; settings: mouse red blood cells (erythrocytes), read-out: %max
[5] = Antiproliferative activity against HEK293T cells assessed as reduction in cell viability measured for 48 hrs by MTT assay; assay type: toxicity, cell-based, HEK-293T; settings: human
[6] = Selectivity index, ratio of IC50 for antiproliferative activity against HEK293T cells assessed as reduction in cell viability to MIC for antibacterial activity against methicillin-resistant Staphylococcus aureus assessed as bacterial growth inhibition; assay type: toxicity, cell-based; settings: human, read-out: Selectivity Index
[7] = test system: HEK-293T; experiment: Antiproliferative activity against HEK293T cells assessed as reduction in cell viability at 2.5 to 320 uM measured for 48 hrs by MTT assay relative to control; assay type: toxicity, cell-based; settings: human, dose 2.5-320 µM
[8] = test system: Staphylococcus aureus; experiment: Antibacterial activity against methicillin-resistant Staphylococcus aureus 18908 assessed as bacterial growth inhibition incubated for 24 hrs by CLSI based micro-broth dilution assay; assay type: functional
[9] = test system: Staphylococcus aureus; experiment: Antibacterial activity against methicillin-resistant Staphylococcus aureus 18466 assessed as bacterial growth inhibition incubated for 24 hrs by CLSI based micro-broth dilution assay; assay type: functional
[10] = test system: Staphylococcus aureus; experiment: Antibacterial activity against methicillin-resistant Staphylococcus aureus 18475 assessed as bacterial growth inhibition incubated for 24 hrs by CLSI based micro-broth dilution assay; assay type: functional
[11] = test system: Staphylococcus aureus; experiment: Antibacterial activity against methicillin-resistant Staphylococcus aureus 18567 assessed as bacterial growth inhibition incubated for 24 hrs by CLSI based micro-broth dilution assay; assay type: functional
[12] = test system: Staphylococcus aureus; experiment: Antibacterial activity against methicillin-resistant Staphylococcus aureus 18858 assessed as bacterial growth inhibition incubated for 24 hrs by CLSI based micro-broth dilution assay; assay type: functional
[13] = test system: Staphylococcus aureus; experiment: Antibacterial activity against methicillin-resistant Staphylococcus aureus 18878 assessed as bacterial growth inhibition incubated for 24 hrs by CLSI based micro-broth dilution assay; assay type: functional
[14] = test system: Staphylococcus aureus; experiment: Antibacterial activity against methicillin-resistant Staphylococcus aureus 19047 assessed as bacterial growth inhibition incubated for 24 hrs by CLSI based micro-broth dilution assay; assay type: functional
[15] = test system: Staphylococcus aureus; experiment: Antibacterial activity against methicillin-resistant Staphylococcus aureus 19498 assessed as bacterial growth inhibition incubated for 24 hrs by CLSI based micro-broth dilution assay; assay type: functional
[16] = test system: Staphylococcus aureus; experiment: Antibacterial activity against methicillin-resistant Staphylococcus aureus 19167 assessed as bacterial growth inhibition incubated for 24 hrs by CLSI based micro-broth dilution assay; assay type: functional
[17] = test system: Staphylococcus aureus; experiment: Antibacterial activity against methicillin-resistant Staphylococcus aureus 19423 assessed as bacterial growth inhibition incubated for 24 hrs by CLSI based micro-broth dilution assay; assay type: functional
[18] = test system: Staphylococcus aureus; experiment: Antibacterial activity against Methicillin-resistant Staphylococcus aureus infected in ICR mouse skin infection model assessed as reduction in skin abscess volume; assay type: functional, organism-based
[19] = test system: Staphylococcus aureus; experiment: Antibacterial activity against Methicillin-resistant Staphylococcus aureus infected in ICR mouse skin infection model assessed as reduction in bacterial content at 5 mg/kg, sc measured upto 10 days; assay type: functional, organism-based; settings: time <= 10.0 day
[20] = test system: Staphylococcus aureus; experiment: Antibacterial activity against Methicillin-resistant Staphylococcus aureus infected in ICR mouse skin infection model assessed as reduction in inflammatory infiltration at 5 mg/kg, sc by H and E staining based microscopic analysis; assay type: functional, organism-based

| Compound | MIC [1] | HC50 at 1 h [2] | HC10 [3] | hemolysis at 1 h, 320 µM [4] | IC50 at 48 h [5] | selectivity ratio [6] | Activity [7] | MIC [8] | MIC [9] | MIC [10] | MIC [11] | MIC [12] | MIC [13] | MIC [14] | MIC [15] | MIC [16] | MIC [17] | Activity [18] | Activity [19] | Activity [20] |
| --- | --- | --- | --- | --- | --- | --- | --- | --- | --- | --- | --- | --- | --- | --- | --- | --- | --- | --- | --- | --- |
| H-RARVAVRVIRFLYRAW-NH2 | 12 µM | > 320 µM | 320 µM | 9.34% | > 320 µM | 26.7 |  |  |  |  |  |  |  |  |  |  |  |  |  |  |
| H-RRWWWRRWWWRRRRWW-NH2 | 48 µM | > 320 µM | 25.91 µM | 51.3% | > 320 µM | 6.67 | 55.74% |  |  |  |  |  |  |  |  |  |  |  |  |  |
| H-RRFFVRRVFFRRRRFF-OH | 48 µM | > 320 µM | 41.05 µM | 30.1% | > 320 µM | 6.67 | 59.65% |  |  |  |  |  |  |  |  |  |  |  |  |  |
| H-LRPLARRPIRRIRRAW-NH2 | > 48 µM | > 320 µM | > 320 µM | 8.74% | > 320 µM | 6.67 |  |  |  |  |  |  |  |  |  |  |  |  |  |  |
| H-LFRVVRRVVRFIRRAA-NH2 | 12 µM | > 320 µM | > 320 µM | 7.53% | > 320 µM | 26.7 |  |  |  |  |  |  |  |  |  |  |  |  |  |  |
| H-KARVAVKVIRFLYKAW-NH2 | 12 µM | > 320 µM | > 320 µM | 6.36% | > 320 µM | 26.7 |  |  |  |  |  |  |  |  |  |  |  |  |  |  |
| H-RARVRVRVRRFLRRRW-NH2 | > 48 µM | > 320 µM | 320 µM | 11.3% | > 320 µM | 6.67 |  |  |  |  |  |  |  |  |  |  |  |  |  |  |
| H-RRRWARRIIWIIRRAW-NH2 | 24 µM | > 320 µM | > 320 µM | 8.66% | > 320 µM | 13.3 |  |  |  |  |  |  |  |  |  |  |  |  |  |  |
| H-KASVSVKVTASLSKAW-NH2 | > 48 µM | > 320 µM | > 320 µM | 7.51% | > 320 µM | 6.67 |  |  |  |  |  |  |  |  |  |  |  |  |  |  |
| H-RRPLARPLIRFIRRPW-NH2 | > 48 µM | > 320 µM | > 320 µM | 7.57% | > 320 µM | 6.67 |  |  |  |  |  |  |  |  |  |  |  |  |  |  |
| H-RRRVARRVIRFIRRAW-NH2 | 12 µM | > 320 µM | 320 µM | 10.2% | > 320 µM | 26.7 |  |  |  |  |  |  |  |  |  |  |  |  |  |  |
| H-KASVSVKVTASLSKAWTNSQ-NH2 | > 48 µM | > 320 µM | > 320 µM | 6.24% | > 320 µM | 6.67 |  |  |  |  |  |  |  |  |  |  |  |  |  |  |
| H-RRWIARRAIWRRRRWW-NH2 | 48 µM | > 320 µM | 92.35 µM | 17.2% | > 320 µM | 6.67 | 58.94% |  |  |  |  |  |  |  |  |  |  |  |  |  |
| H-WARIARRAIRAWRRWW-NH2 | 12 µM | > 320 µM | 75.19 µM | 20.1% | > 320 µM | 26.7 | 62.65% |  |  |  |  |  |  |  |  |  |  |  |  |  |
| H-RRRVARRVFWFVRRAV-NH2 | 24 µM | > 320 µM | > 320 µM | 8.25% | > 320 µM | 13.3 |  |  |  |  |  |  |  |  |  |  |  |  |  |  |
| H-LRRFARRLIRRIRRAW-NH2 | 12 µM | > 320 µM | > 320 µM | 7.16% | > 320 µM | 26.7 |  |  |  |  |  |  |  |  |  |  |  |  |  |  |
| Cc1onc(-c2ccccc2)c1C(=O)N[C@@H]1C(=O)N2[C@@H]1SC(C)(C)[C@@H]2C(=O)O [OXACILLIN] |  |  |  |  |  |  |  | > 480 µM | > 480 µM | > 480 µM | > 480 µM | > 480 µM | > 480 µM | > 480 µM | > 480 µM | > 480 µM | > 480 µM |  |  |  |
| COc1cccc(OC)c1C(=O)N[C@@H]1C(=O)N2[C@@H]1SC(C)(C)[C@@H]2C(=O)O [METHICILLIN] |  |  |  |  |  |  |  | > 480 µM | > 480 µM | > 480 µM | > 480 µM | > 480 µM | > 480 µM | > 480 µM | > 480 µM | > 480 µM | > 480 µM | Active |  |  |
| H-KGVIFAKASVSVKVTASLSKAWTNSQ-NH2 | > 48 µM | > 320 µM | > 320 µM | 5.92% | > 320 µM | 6.67 |  |  |  |  |  |  |  |  |  |  |  |  |  |  |
| H-KARVSVKVTASLSKAW-NH2 | > 48 µM | > 320 µM | > 320 µM | 7.57% | > 320 µM | 6.67 |  |  |  |  |  |  |  |  |  |  |  |  |  |  |
| CN[C@H](CC(C)C)C(=O)N[C@H]1C(=O)N[C@@H](CC(N)=O)C(=O)N[C@H]2C(=O)N[C@H]3C(=O)N[C@H](C(=O)N[C@H](C(=O)O)c4cc(O)cc(O)c4-c4cc3ccc4O)[C@H](O)c3ccc(c(Cl)c3)Oc3cc2cc(c3O[C@@H]2O[C@H](CO)[C@@H](O)[C@H](O)[C@H]2O[C@H]2C[C@](C)(N)[C@H](O)[C@H](C)O2)Oc2ccc(cc2Cl)[C@H]1O [VANCOMYCIN] | 1 µM (≈ 1.45 µg/mL) | > 320 µM | > 320 µM | 6.24% | > 320 µM | 320 |  | 1 µM (≈ 1.45 µg/mL) | 1 µM (≈ 1.45 µg/mL) | 1 µM (≈ 1.45 µg/mL) | 1 µM (≈ 1.45 µg/mL) | 1 µM (≈ 1.45 µg/mL) | 1 µM (≈ 1.45 µg/mL) | 1 µM (≈ 1.45 µg/mL) | 1 µM (≈ 1.45 µg/mL) | 1 µM (≈ 1.45 µg/mL) | 1 µM (≈ 1.45 µg/mL) |  | Active | Active |
| H-WRWWRRRRWWRWRRWW-NH2 | 48 µM | > 320 µM | 33.2 µM | 40.3% | > 320 µM | 6.67 | 59.04% |  |  |  |  |  |  |  |  |  |  |  |  |  |
